The subject of one series is Hs746T. Briefly: cells. As to conditions: Homo sapiens, 120 h.
Series [1] relates to BaF3. Briefly: cells. To be noted: Mus musculus, BaF3, 72 h.
The test system of series [2] is BaF3. Briefly: cells. As to conditions: Mus musculus, BaF3, 72 h. This is another data set of the same source.
Series [3] deals with BaF3. Briefly: cells. As to conditions: Mus musculus, BaF3, 72 h. This is another data set of the same source.
Series [4] has as its system BaF3. Briefly: cells. As to conditions: Mus musculus, BaF3, 72 h. This is another data set of the same source.
In series [5] the test system is BaF3. Briefly: cells. To be noted: Mus musculus, BaF3, 72 h. This is another data set of the same source.
Series [6] deals with BaF3. Briefly: cells. As to conditions: Mus musculus, BaF3, 72 h. This is another data set of the same source.
Series [7] relates to BaF3. Briefly: cells. As to conditions: Mus musculus, BaF3, 72 h. The source holds these as a separate data set.
For series [8], the system named is BaF3. Briefly: cells. To be noted: Mus musculus, BaF3, 72 h. This is another data set of the same source.
The test system of another series is AGS. Briefly: cells. To be noted: Homo sapiens, 120 h.
The next series has as its system SNU-16. Briefly: cells. As to conditions: Homo sapiens, SNU-16, 120 h.
Series [9] is described as follows: AUC(0 to t) in Sprague-Dawley rat at 10 mg/kg, ip measured for 24 hrs by LC-MS/MS analysis. It is filed as ADME, organism-based. The arrangement: dose 10 mg/kg, time 24 hrs, route ip. As to conditions: in vivo.
Series [10] in a line: AUC(0 to t) in Sprague-Dawley rat at 10 mg/kg, po measured for 24 hrs by LC-MS/MS analysis. It is filed as ADME, organism-based. The arrangement: time 24 hrs, dose 10 mg/kg, route po. As to conditions: in vivo.
Series [11] is described as follows: AUC(0 to t) in Sprague-Dawley rat at 2 mg/kg, iv measured for 24 hrs by LC-MS/MS analysis. The format is ADME, organism-based. Also noted: time 24 hrs, dose 2 mg/kg, route iv. To be noted: in vivo.
The target in series [12] is T1, Hepatocyte growth factor receptor (Homo sapiens, UniProt P08581). Briefly: Inhibition of N-terminal His/SUMO tagged wild type human c-Met (1038 to 1346 residues) transfected in Escherichia coli using Tyr06 peptide as substrate incubated for 1 hr in presence of ATP by FRET-based Z'-Lyte assay.
T1 sequence (P08581 whole entry, the tested form may be a part): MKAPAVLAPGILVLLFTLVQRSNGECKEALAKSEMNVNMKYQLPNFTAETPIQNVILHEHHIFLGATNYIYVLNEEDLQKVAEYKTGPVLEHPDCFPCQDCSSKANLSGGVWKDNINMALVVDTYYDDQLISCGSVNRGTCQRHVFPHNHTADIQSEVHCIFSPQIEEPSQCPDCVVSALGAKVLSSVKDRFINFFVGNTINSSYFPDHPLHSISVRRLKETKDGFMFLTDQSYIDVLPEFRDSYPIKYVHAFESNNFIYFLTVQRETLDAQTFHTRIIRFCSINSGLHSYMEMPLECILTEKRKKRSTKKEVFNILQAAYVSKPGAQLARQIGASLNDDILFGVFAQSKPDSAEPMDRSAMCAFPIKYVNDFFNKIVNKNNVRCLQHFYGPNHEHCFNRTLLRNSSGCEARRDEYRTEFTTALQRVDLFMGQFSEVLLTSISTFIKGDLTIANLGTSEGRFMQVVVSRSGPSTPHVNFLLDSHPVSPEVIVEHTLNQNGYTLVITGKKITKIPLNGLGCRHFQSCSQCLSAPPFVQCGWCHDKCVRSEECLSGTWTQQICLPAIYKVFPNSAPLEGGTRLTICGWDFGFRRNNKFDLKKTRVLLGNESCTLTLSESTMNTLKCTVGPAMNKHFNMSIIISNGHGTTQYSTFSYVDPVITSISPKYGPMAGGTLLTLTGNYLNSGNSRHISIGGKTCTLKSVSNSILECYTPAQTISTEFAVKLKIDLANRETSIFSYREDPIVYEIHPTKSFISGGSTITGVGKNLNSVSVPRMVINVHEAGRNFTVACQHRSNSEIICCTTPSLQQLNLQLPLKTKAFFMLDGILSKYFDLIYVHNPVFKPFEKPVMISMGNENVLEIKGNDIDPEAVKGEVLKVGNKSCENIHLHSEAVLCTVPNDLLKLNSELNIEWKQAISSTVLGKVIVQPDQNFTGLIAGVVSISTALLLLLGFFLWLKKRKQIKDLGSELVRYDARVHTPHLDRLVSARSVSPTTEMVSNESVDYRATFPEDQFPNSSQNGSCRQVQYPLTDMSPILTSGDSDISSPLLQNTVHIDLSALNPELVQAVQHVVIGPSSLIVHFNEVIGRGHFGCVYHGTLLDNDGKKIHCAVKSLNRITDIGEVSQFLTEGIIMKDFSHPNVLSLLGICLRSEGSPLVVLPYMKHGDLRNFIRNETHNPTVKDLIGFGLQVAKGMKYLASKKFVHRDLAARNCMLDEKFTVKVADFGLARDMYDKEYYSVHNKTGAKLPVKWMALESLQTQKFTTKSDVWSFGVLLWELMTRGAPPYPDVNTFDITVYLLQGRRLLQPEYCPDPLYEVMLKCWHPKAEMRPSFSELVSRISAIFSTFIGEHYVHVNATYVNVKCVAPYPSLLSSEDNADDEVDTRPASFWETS
For series [13], the target named is T2, Tyrosine-protein kinase receptor UFO (Homo sapiens, UniProt P30530).
T2 sequence (P30530 whole entry): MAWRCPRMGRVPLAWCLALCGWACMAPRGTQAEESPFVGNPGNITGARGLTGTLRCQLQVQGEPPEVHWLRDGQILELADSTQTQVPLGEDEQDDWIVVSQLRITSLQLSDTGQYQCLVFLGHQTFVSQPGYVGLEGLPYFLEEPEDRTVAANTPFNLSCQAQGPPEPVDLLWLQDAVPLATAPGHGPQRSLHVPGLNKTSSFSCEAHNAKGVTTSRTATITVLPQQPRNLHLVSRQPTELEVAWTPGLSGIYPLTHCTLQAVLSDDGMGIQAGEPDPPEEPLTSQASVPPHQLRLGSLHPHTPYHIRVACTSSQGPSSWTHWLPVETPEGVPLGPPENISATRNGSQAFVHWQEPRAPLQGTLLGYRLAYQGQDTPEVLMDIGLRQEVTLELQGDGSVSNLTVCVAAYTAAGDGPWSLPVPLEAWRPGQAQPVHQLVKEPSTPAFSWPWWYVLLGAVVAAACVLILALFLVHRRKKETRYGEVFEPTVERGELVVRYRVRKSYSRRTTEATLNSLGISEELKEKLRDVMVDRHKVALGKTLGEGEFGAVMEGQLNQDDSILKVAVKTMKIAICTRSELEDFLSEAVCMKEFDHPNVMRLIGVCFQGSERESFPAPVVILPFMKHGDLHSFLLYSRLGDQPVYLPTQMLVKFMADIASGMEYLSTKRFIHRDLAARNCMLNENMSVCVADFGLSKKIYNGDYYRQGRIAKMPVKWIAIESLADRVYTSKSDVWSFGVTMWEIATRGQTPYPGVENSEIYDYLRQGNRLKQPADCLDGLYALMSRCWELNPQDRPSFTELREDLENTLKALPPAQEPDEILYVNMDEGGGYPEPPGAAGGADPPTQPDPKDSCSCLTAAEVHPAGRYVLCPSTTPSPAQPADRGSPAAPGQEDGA
Briefly: Inhibition of AXL (unknown origin).

The nature of series [14]: Apparent permeability across apical to basolateral side in human Caco-2 cells at 10 uM incubated for 120 mins by LC-MS/MS analysis. The format is ADME, cell-based.
In series [15] the test system is BaF3. Briefly: Induction of apoptosis in mouse BaF3 cells harboring wild type Tpr-Met fusion protein assessed as viable cells at 10 nM incubated for 48 hrs by Annexin V/7-AAD staining based flow cytometry analysis (reference value: 89.76%). To be noted: read-out: Activity. It is filed as functional. (In general: Flow cytometry measures light scatter and fluorescence of single cells or particles in a stream.)

In series [16] the test system is BaF3. Briefly: Induction of apoptosis in mouse BaF3 cells harboring wild type Tpr-Met fusion protein assessed as viable cells at 20 nM incubated for 48 hrs by Annexin V/7-AAD staining based flow cytometry analysis (reference value: 89.76%). The format is functional. To be noted: read-out: Activity.
In series [17] the test system is BaF3. Briefly: Induction of apoptosis in mouse BaF3 cells harboring wild type Tpr-Met fusion protein assessed as viable cells at 40 nM incubated for 48 hrs by Annexin V/7-AAD staining based flow cytometry analysis (reference value: 89.76%). To be noted: read-out: Activity. It is filed as functional.
A short description of series [18]: Half life in Sprague-Dawley rat at 2 mg/kg, iv measured for 24 hrs by LC-MS/MS analysis. It is filed as ADME, organism-based. To be noted: in vivo.
A short description of series [19]: Half life in Sprague-Dawley rat at 10 mg/kg, po measured for 24 hrs by LC-MS/MS analysis. To be noted: in vivo. The format is ADME, organism-based.
Series [20] can be described thus: Half life in Sprague-Dawley rat at 10 mg/kg, ip measured for 24 hrs by LC-MS/MS analysis. The format is ADME, organism-based. To be noted: in vivo.
Series [21] in a line: Tmax in Sprague-Dawley rat at 2 mg/kg, iv measured for 24 hrs by LC-MS/MS analysis. As to conditions: in vivo. The format is ADME, organism-based.
Series [22] is described as follows: Tmax in Sprague-Dawley rat at 10 mg/kg, po measured for 24 hrs by LC-MS/MS analysis. The format is ADME, organism-based. To be noted: in vivo.
A short description of series [23]: Tmax in Sprague-Dawley rat at 10 mg/kg, ip measured for 24 hrs by LC-MS/MS analysis. It is filed as ADME, organism-based. To be noted: in vivo.
Series [24] can be described thus: Cmax in Sprague-Dawley rat at 2 mg/kg, iv measured for 24 hrs by LC-MS/MS analysis. The format is ADME, organism-based. Also noted: dose 2 mg/kg, time 24 hrs, route iv. As to conditions: in vivo.
Series [25] can be described thus: Cmax in Sprague-Dawley rat at 10 mg/kg, po measured for 24 hrs by LC-MS/MS analysis. As to conditions: in vivo. The format is ADME, organism-based. The arrangement: dose 10 mg/kg, time 24 hrs, route po.
Series [26] is described as follows: Cmax in Sprague-Dawley rat at 10 mg/kg, ip measured for 24 hrs by LC-MS/MS analysis. The format is ADME, organism-based. Also noted: time 24 hrs, dose 10 mg/kg, route ip. As to conditions: in vivo.
Series [27] in a line: Apparent volume of distribution in Sprague-Dawley rat at 2 mg/kg, iv measured for 24 hrs by LC-MS/MS analysis. It is filed as ADME, organism-based. To be noted: in vivo, read-out: Vz.
The nature of series [28]: Clearance in Sprague-Dawley rat at 2 mg/kg, iv measured for 24 hrs by LC-MS/MS analysis. It is filed as ADME, organism-based. To be noted: in vivo.
A short description of series [29]: MRT (0 to t) in Sprague-Dawley rat at 2 mg/kg, iv measured for 24 hrs by LC-MS/MS analysis. It is filed as ADME, organism-based. To be noted: in vivo.
The nature of series [30]: MRT (0 to t) in Sprague-Dawley rat at 10 mg/kg, po measured for 24 hrs by LC-MS/MS analysis. The format is ADME, organism-based. As to conditions: in vivo.
The nature of series [31]: MRT (0 to t) in Sprague-Dawley rat at 10 mg/kg, ip measured for 24 hrs by LC-MS/MS analysis. It is filed as ADME, organism-based. To be noted: in vivo.
A short description of series [32]: Oral bioavailability in Sprague-Dawley rat at 10 mg/kg measured for 24 hrs by LC-MS/MS analysis. The format is ADME, organism-based. To be noted: in vivo.
Series [33] is described as follows: Bioavailability in Sprague-Dawley rat at 10 mg/kg, ip measured for 24 hrs by LC-MS/MS analysis. It is filed as ADME, organism-based. As to conditions: in vivo.
Another series concerns the target Cytochrome P450 2C9 (Homo sapiens, UniProt P11712). Briefly: Inhibition of CYP2C9 (unknown origin) in microsomes preincubated for 5 mins followed by NADPH addition by LC-MS/MS analysis. The format is ADME, Microsome.
The target of a further series is Cytochrome P450 2D6 (Homo sapiens, UniProt P10635). Briefly: Inhibition of CYP2D6 (unknown origin) in microsomes preincubated for 5 mins followed by NADPH addition by LC-MS/MS analysis. The format is ADME, Microsome.
Sequence of Cytochrome P450 2D6 (P10635 whole entry): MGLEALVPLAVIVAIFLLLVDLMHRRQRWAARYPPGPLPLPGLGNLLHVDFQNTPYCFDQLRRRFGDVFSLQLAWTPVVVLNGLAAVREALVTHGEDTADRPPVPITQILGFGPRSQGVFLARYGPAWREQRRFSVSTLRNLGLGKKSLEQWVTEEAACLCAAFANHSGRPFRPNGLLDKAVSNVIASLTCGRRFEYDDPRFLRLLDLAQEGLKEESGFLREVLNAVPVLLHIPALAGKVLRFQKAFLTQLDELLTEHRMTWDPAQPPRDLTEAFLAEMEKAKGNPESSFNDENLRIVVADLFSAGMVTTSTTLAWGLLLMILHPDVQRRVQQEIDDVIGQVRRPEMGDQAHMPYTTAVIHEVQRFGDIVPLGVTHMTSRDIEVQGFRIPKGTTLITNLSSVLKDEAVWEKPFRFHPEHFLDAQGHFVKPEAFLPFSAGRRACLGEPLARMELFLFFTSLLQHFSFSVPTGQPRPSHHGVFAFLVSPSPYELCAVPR
The target in a further series is Cytochrome P450 3A4 (Homo sapiens, UniProt P08684). Briefly: Inhibition of CYP3A4 (unknown origin) in microsomes sing testosterone as a substrate preincubated for 5 mins followed by NADPH addition by LC-MS/MS analysis. The format is ADME, Microsome.
Sequence of Cytochrome P450 3A4 (P08684 whole entry): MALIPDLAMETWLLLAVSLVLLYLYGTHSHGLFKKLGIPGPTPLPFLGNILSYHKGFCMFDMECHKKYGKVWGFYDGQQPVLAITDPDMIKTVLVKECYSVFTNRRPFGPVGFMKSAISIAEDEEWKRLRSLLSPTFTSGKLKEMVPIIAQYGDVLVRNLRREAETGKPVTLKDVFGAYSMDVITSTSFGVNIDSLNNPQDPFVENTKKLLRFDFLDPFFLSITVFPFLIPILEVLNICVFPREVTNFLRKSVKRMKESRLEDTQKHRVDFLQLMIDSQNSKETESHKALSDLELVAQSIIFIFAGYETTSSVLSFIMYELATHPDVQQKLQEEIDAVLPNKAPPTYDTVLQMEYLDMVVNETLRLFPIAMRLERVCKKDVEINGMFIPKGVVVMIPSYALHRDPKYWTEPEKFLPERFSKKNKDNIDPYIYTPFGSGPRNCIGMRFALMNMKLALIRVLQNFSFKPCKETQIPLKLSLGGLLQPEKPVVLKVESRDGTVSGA
For series [34], the target named is Voltage-gated inwardly rectifying potassium channel KCNH2 (Homo sapiens, UniProt Q12809). Briefly: Inhibition of hERG expressed in HEK293 cells by whole-cell patch clamp technique. It is filed as toxicity, cell-based.
Sequence of Voltage-gated inwardly rectifying potassium channel KCNH2 (Q12809 whole entry): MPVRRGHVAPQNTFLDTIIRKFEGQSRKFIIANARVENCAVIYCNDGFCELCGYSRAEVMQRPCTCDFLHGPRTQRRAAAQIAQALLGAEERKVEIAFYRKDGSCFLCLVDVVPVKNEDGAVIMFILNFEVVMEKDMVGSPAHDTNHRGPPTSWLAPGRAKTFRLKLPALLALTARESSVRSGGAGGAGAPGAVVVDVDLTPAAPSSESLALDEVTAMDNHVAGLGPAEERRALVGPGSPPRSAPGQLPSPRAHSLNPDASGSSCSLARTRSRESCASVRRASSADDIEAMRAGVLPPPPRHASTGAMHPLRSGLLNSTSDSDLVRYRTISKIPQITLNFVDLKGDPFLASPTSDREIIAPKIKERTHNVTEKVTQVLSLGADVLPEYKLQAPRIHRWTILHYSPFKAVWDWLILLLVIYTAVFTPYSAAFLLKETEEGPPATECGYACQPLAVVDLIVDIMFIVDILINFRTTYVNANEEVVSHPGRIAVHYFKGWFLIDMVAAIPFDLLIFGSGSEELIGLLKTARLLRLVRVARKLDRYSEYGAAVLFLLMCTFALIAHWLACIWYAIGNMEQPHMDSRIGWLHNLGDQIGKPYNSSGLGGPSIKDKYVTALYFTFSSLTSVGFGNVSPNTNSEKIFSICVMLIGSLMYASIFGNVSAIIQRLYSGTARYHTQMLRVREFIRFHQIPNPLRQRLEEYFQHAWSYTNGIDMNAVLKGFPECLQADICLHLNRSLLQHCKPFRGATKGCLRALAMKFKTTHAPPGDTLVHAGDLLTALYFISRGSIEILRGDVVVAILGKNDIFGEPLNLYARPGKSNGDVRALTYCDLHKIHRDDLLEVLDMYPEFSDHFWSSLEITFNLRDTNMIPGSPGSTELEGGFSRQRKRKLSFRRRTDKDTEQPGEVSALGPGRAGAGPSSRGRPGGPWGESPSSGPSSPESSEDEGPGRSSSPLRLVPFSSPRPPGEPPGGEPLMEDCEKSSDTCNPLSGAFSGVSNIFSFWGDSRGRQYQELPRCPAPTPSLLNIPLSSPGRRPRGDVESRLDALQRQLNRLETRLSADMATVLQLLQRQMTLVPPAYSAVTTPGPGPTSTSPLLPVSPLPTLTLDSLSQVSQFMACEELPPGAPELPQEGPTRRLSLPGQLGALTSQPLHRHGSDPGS
In series [35] the target is Hepatocyte growth factor receptor (Mus musculus) (UniProt P16056). As to conditions: BaF3, dose 1.1-30 nM, time 12.0 hrs.
In series [36] the target is T1, Hepatocyte growth factor receptor. To be noted: Hs746T, dose 1.1-30 nM, time 12.0 hrs.

Sequence of Cytochrome P450 2C9 (P11712 whole entry): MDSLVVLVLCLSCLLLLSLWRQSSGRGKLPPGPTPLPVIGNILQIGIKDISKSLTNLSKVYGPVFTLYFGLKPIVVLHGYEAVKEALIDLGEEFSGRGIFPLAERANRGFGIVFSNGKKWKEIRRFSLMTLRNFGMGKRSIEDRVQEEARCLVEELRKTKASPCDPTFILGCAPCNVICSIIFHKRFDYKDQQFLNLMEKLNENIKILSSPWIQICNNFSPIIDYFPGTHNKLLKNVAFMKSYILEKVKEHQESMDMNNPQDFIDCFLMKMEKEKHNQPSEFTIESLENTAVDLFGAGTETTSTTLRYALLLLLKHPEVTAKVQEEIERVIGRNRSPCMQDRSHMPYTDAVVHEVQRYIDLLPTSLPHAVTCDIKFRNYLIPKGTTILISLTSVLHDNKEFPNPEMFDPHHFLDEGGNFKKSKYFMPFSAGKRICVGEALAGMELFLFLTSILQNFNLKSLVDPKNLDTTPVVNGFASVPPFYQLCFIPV

For orientation: IC50 means the concentration needed to halve the response being measured. `CN1CCC(COc2cnc(-c3cccc(Cn4nc(-c5cccc(C#N)c5)ccc4=O)c3)nc2)CC1` [TEPOTINIB]: the IC50 in the series with Hs746T is 4.5 nM; in the series with BaF3 [1], 8.8 nM; with BaF3 [2], 10 nM; in the series on BaF3 [3], 2.5 nM; in the series with BaF3 [4] it was 1.5 nM; in the series with BaF3 [5] it was 36.6 nM. The half-inhibitory concentration (IC50) in the series on BaF3 [6] was 46.7 nM; with BaF3 [7], 3060 nM; in the series with BaF3 [8], 2380 nM; in the series on AGS it was 1450 nM; in the series with SNU-16 it was 363 nM.

The term AUC(0-t) denotes the area under the concentration-time curve up to a stated or last time point. A low value points to low exposure. The term Papp A→B denotes the apparent permeability from the apical to the basolateral side of a cell layer. In general, half-life refers to the time needed for the level to fall by half in the phase considered. A low value points to fast loss. As usually defined, the Tmax is the time at which the peak concentration occurs. Usually Cmax stands for the peak of the concentration-time curve. The term clearance denotes a measure of how efficiently the substance is removed, as volume per time. Higher therefore signals a high capacity for elimination. One may read the MRT last as the average time that molecules of a dose stay in the body. As a reminder, the bioavailability is the share of a dose that reaches the circulation, judged against a reference dose that is usually intravenous. A high value points to much systemic uptake. `O=C1NCCCCn2cc(cn2)-c2cnc3ccc(cc3c2)CCn2nc(ccc2=O)-c2ccc1c(C(F)(F)F)c2`: the figures for the AUC(0-t) at 24 h in series [9], in series [10] and in series [11] were 820 ng·h/mL, 48.9 ng·h/mL and 484 ng·h/mL, respectively. Moreover, the IC50 in series [12] is 2.9 nM; in series [13], 401 nM; against Cytochrome P450 2C9, greater than 10000 nM; on Cytochrome P450 2D6, greater than 10000 nM; against Cytochrome P450 3A4, greater than 10000 nM; in series [34], 27700 nM. For the same molecule, the Papp A→B at 2 h, 10 µM in series [14] was determined as 0.53 ×10⁻⁶ cm/s. For the same molecule, the viability at 0.01 µM in the series on BaF3 [15] turned out to be 87%. The viability at 0.02 µM with BaF3 [16] is 75.4%. Moreover, the viability at 0.04 µM in the series with BaF3 [17] is 42.9%. The half-life was 34.2 min in series [18], 149 min in series [19] and 278 min in series [20]. The results for the Tmax in series [21], in [22] and in series [23] were 4.8 min, 15 min and 15 min, respectively. In addition, the peak concentration (Cmax) in series [24] came to 1070 ng/mL; in series [25] it was 61 ng/mL; in series [26], 282 ng/mL. Further, in [27], the Vd stood at 3.47 L/kg. The same molecule had a clearance in [28] of 70.1 mL/min/kg. Besides, the figures for the MRT last at 24 h in series [29], in series [30] and in [31] were 21.6 min, 103 min and 204 min, respectively. The bioavailability in series [32] was 2.02%; in series [33], 33.9%. The inhibition entry in series [35] and in series [36] was “Dde” throughout.

These data come from ChEMBL document CHEMBL5096238 (J Med Chem, 2022).
